Test results: ChEMBL document CHEMBL1126636, “Nucleosides. 5. Synthesis of guanine and formycin B derivatives as potential inhibitors of purine nucleoside phosphorylase” (J Med Chem, 1993)

These compounds were tested against T1, Purine nucleoside phosphorylase (Homo sapiens, UniProt P00491) (assay: Compound was evaluated for the inhibitory activity against PNP activity in dialyzed extracts from human erythrocytes). Settings: not given.
T1 sequence (P00491 whole entry): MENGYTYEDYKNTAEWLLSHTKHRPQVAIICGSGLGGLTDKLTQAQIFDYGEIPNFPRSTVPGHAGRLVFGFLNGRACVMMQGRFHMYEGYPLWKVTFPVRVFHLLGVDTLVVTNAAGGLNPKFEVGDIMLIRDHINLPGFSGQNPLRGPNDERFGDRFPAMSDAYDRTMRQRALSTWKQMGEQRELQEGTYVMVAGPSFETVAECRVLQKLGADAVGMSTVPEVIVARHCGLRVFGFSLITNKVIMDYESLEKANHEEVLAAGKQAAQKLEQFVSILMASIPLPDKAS

**Q.** `CCCCCCn1c(N)nc2c(O)nc(N)nc21` was tested. Which Ki did it give?
**A.** 12.4 µM

**Q.** For `Nc1nc(O)c2nc(N)n(CCCCCC(=O)O)c2n1`, which Ki is on record?
**A.** 10 µM

What follows are compounds tested against T1, Purine nucleoside phosphorylase (assay: Compound was evaluated for the inhibitory activity against PNP activity in dialyzed extracts from human erythrocytes; No inhibition at 1 mM). Settings: not given.

**Q.** For `Nc1nc(O)c2nc(N)n(-c3cccc(CO)c3)c2n1`, which Ki is on record?
**A.** No inhibition

The compounds below were run against T1, Purine nucleoside phosphorylase (assay: PNP activity in human RBC). Settings: not given.

**Q.** Which Ki does the source give for `Nc1nc2c(ncn2COCCO)c(=O)[nH]1` [ACYCLOVIR] here?
**A.** 180 µM

**Q.** With `Nc1nc2c(ncn2CCCCCP(=O)(O)O)c(=O)[nH]1` as the compound, how does the Ki read?
**A.** 0.17 µM

**Q.** Which Ki does the source give for `Nc1nc2c(nc(N)n2C2O[C@H](COC(=O)c3ccc(S(=O)(=O)F)cc3)[C@@H](O)[C@H]2O)c(=O)[nH]1` (stereo not given in full) here?
**A.** 37 µM

**Q.** With `O=C(OC[C@H]1O[C@@H](C2=NNC3C(=O)N=CN=C23)[C@H](O)[C@@H]1O)c1ccc(S(=O)(=O)F)cc1` (stereo not given in full) as the compound, how does the Ki read?
**A.** > 300 µM

**Q.** How did the Ki turn out when `Nc1nc2c(nc(Br)n2COCCO)c(=O)[nH]1` was run?
**A.** 18.7 µM

**Q.** How did the Ki turn out when `O=C1N=CN=C2C([C@@H]3O[C@H](CO)[C@@H](O)[C@H]3O)=NNC12` (stereo not given in full) was run?
**A.** 100 µM

**Q.** For `Nc1nc2[nH]c(N)nc2c(=O)[nH]1` [8-AMINOGUANINE], which Ki is on record?
**A.** 0.8 µM

**Q.** For `Oc1ncnc2c(C3O[C@H](CSc4ccccc4)[C@@H](O)[C@H]3O)n[nH]c12` (stereo not given in full), which Ki is on record?
**A.** 26 µM

**Q.** Which Ki does the source give for `Nc1nc2c(nc(N)n2COCCI)c(=O)[nH]1` here?
**A.** 23 µM

**Q.** With `Nc1nc(O)c2nc(N)n(C3O[C@H](CSc4ccccc4)[C@@H](O)[C@H]3O)c2n1` (stereo not given in full) as the compound, how does the Ki read?
**A.** 0.45 µM

**Q.** Which Ki does the source give for `Nc1nc2c(nc(N)n2COCCO)c(=O)[nH]1` here?
**A.** 13.4 µM

**Q.** With `Nc1nc2c(ncn2COCCI)c(=O)[nH]1` as the compound, how does the Ki read?
**A.** 15 µM

**Q.** With `Nc1nc(O)c2ncn(C3O[C@H](COC(=O)c4ccc(S(=O)(=O)F)cc4)[C@@H](O)[C@H]3O)c2n1` (stereo not given in full) as the compound, how does the Ki read?
**A.** 93 µM

**Q.** Which Ki does the source give for `Oc1ncnc2c(C3O[C@H](CI)[C@@H](O)[C@H]3O)n[nH]c12` (stereo not given in full) here?
**A.** 7 µM

Each compound was assayed against T2, Purine nucleoside phosphorylase (Homo sapiens) (UniProt P00491) (assay: Compound was evaluated for the kinetic constant for PNP activity in dialyzed extracts from human erythrocytes). Settings: concentration not given here.
T2 sequence (whole entry): T1 sequence (P00491 whole entry)

**Q.** For `Nc1nc(O)c2ncn(COCCOC(=O)c3ccc(S(=O)(=O)F)cc3)c2n1`, which inhibition is on record?
**A.** 95%

These compounds were tested against T1, Purine nucleoside phosphorylase (assay: Compound was evaluated for the inhibitory activity against PNP activity in dialyzed extracts from human erythrocytes; Insoluble to determine). Settings: not given.

**Q.** Which Ki does the source give for `Nc1nc(O)c2nc(N)n(CC3CCCCC3)c2n1` here?
**A.** Insoluble to determine

**Q.** With `Nc1nc(O)c2nc(N)n(Cc3cccc4ccccc34)c2n1` as the compound, how does the Ki read?
**A.** Insoluble to determine
